In US20240174618A1, “SUBSTITUTED (2-HETEROARYLOXYPHENYL)SULFONATES, SALTS THEREOF AND THEIR USE AS HERBICIDAL AGENTS” (Bayer Aktiengesellschaft, priority 2021, published 2024):

Columns and labels:
Assay type in all cases: in vivo
[1] = test system: Veronica persica (VERPE); experiment: B. Herbicidal post-emergence efficacy, VERPE
Protocol: (§1) Seeds of mono- and dicotyledonous weed plants were placed in plastic pots in sandy loam soil (doubly sown with in each case one species of mono- or dicotyledonous weed plants per pot), covered with soil and cultivated in a greenhouse under controlled growth conditions. 2 to 3 weeks after sowing, the test plants were treated at the one-leaf stage. The compounds of the invention, formulated in the form of wettable powders (WP) or as emulsion concentrates (EC), were applied onto the green parts of the plants as aqueous suspension or emulsion with addition of 0.5% additive at a water application rate of 600 liters per hectare (converted). After the test plants had been kept in the greenhouse under optimum growth conditions for about 3 weeks, the activity of the preparations was rated visually in comparison to untreated controls.
(§2) For example, • 100% efficacy=plants have died, • 0% efficacy=like untreated control plants
(§3) Tables B1a to B12c below show the effects of selected inventive compounds of the general formula (I) according to table 1 on various harmful plants at an application rate corresponding to 1280 g/ha or less, which were obtained by the experimental procedure mentioned above.

[2] = test system: Amaranthus retroflexus (AMARE); experiment: B. Herbicidal post-emergence efficacy, AMARE
Protocol: as §1, §2, §3

[3] = test system: Amaranthus retroflexus (AMARE); experiment: A. Herbicidal pre-emergence efficacy, AMARE
From the text: (§4) Seeds of mono- and dicotyledonous weed plants were placed in plastic pots in sandy loam soil (doubly sown with one species each of mono- or dicotyledonous weed plants per pot) and covered with soil. The compounds of the invention, formulated in the form of wettable powders (WP) or as emulsion concentrates (EC), were then applied onto the surface of the covering soil as aqueous suspension or emulsion with addition of 0.5% additive at a water application rate of 600 liters per hectare (converted). After the treatment, the pots were placed in a greenhouse and kept under good growth conditions for the test plants. After about 3 weeks, the efficacy of the preparations was scored visually in comparison with untreated controls as percentages.
(§5) For example, • 100% efficacy=plants have died, • 0% efficacy=like untreated control plants.
(§6) Tables A1a to A12c below show the effects of selected compounds of the general formula (I) according to table 1 on various harmful plants at an application rate corresponding to 1280 g/ha or less, which were obtained by the experimental procedure mentioned above.

[4] = test system: Abutilon theophrasti (ABUTH); experiment: B. Herbicidal post-emergence efficacy, ABUTH; conditions: rated visually after about 3 weeks
Protocol: as §1, §2, §3

[5] = test system: Echinochloa crus-galli (ECHCG); experiment: B. Herbicidal post-emergence efficacy, ECHCG; conditions: rated visually after about 3 weeks
Protocol: as §1, §2, §3

[6] = test system: Stellaria media (STEME); experiment: A. Herbicidal pre-emergence efficacy, STEME; conditions: dosage 1280 g/ha
From the text: as §4, §5, §6

[7] = test system: Stellaria media (STEME); experiment: B. Herbicidal post-emergence efficacy, STEME
Protocol: as §1, §2, §3

[8] = test system: Poa annua (POAAN); experiment: A. Herbicidal pre-emergence efficacy, POAAN
From the text: as §4, §5, §6

[9] = test system: Poa annua (POAAN); experiment: B. Herbicidal post-emergence efficacy, POAAN; conditions: 1280 g/ha
Protocol: as §1, §2, §3

[10] = test system: Kochia scoparia (KCHSC); experiment: B. Herbicidal post-emergence efficacy, KCHSC; conditions: for Post-emergence efficacy against KCHSC in %: rated visually after about 3 weeks; for Post-emergence efficacy against KCHSC: 1280 g/ha
Protocol: as §1, §2, §3

[11] = test system: Echinochloa crus-galli (ECHCG); experiment: A. Herbicidal pre-emergence efficacy, ECHCG; conditions: 1280 g/ha; scored visually after about 3 weeks vs untreated controls
From the text: as §4, §5, §6

[12] = test system: Veronica persica (VERPE); experiment: A. Herbicidal pre-emergence efficacy, VERPE; conditions: 1280 g/ha
From the text: as §4, §5, §6

[13] = test system: Setaria viridis (SETVI); experiment: A. Herbicidal pre-emergence efficacy, SETVI
From the text: as §4, §5, §6

[14] = test system: Digitaria sanguinalis (DIGSA); experiment: A. Herbicidal pre-emergence efficacy, DIGSA; conditions: scored visually after about 3 weeks vs untreated controls
From the text: as §4, §5, §6

[15] = test system: Kochia scoparia (KCHSC); experiment: A. Herbicidal pre-emergence efficacy, KCHSC; conditions: pre-emergence, dosage 1280 g/ha
From the text: as §4, §5, §6

SMILES	Post-emergence efficacy against VERPE ([1]; 1280 g/ha) [%]	Post-emergence efficacy against AMARE ([2]; 1280 g/ha) [%]	Pre-emergence efficacy against AMARE in % ([3]; 320 g/ha) [%]	Pre-emergence efficacy against AMARE in % ([3]; 1280 g/ha) [%]	Post-emergence efficacy against ABUTH in % ([4]; 320 g/ha) [%]	Post-emergence efficacy against ABUTH in % ([4]; 1280 g/ha) [%]	Post-emergence efficacy against STEME ([7]; 1280 g/ha) [%]	Pre-emergence efficacy against POAAN ([8]; dosage 1280 g/ha) [%]	Post-emergence efficacy against KCHSC in % ([10]; 80 g/ha) [%]	Post-emergence efficacy against KCHSC in % ([10]; 320 g/ha) [%]	Post-emergence efficacy against KCHSC [10] [%]	Post-emergence efficacy against VERPE ([1]; 80 g/ha) [%]	Post-emergence efficacy against VERPE ([1]; 320 g/ha) [%]	Post-emergence efficacy against AMARE ([2]; 80 g/ha) [%]	Post-emergence efficacy against AMARE ([2]; 320 g/ha) [%]	Pre-emergence efficacy against SETVI ([13]; dosage 1280 g/ha) [%]	Pre-emergence efficacy against DIGSA ([14]; 1280 g/ha) [%]	Pre-emergence efficacy against KCHSC [15] [%]	also measured
O=[N+]([O-])c1ccc(Oc2ccccc2OS(=O)(=O)CCCCl)nc1 [Example I-62]	90	90																	
O=S(=O)(CCCCl)Oc1ccccc1Oc1ccc(C(F)(F)F)cn1 [Example I-63]	90	90																	
O=S(=O)(CCCCl)Oc1ccccc1Oc1ncc(Cl)cc1F [Example I-64]	90	90	90	100	90	90	90	100	90	90	90	90	90	90	90	100	100	90	Post-emergence efficacy against ECHCG in % ([5]; 1280 g/ha): 90%; Pre-emergence efficacy against STEME [6]: 90%; Post-emergence efficacy against POAAN [9]: 90%; Pre-emergence efficacy against ECHCG [11]: 100%; Pre-emergence efficacy against VERPE in % [12]: 100%; Pre-emergence efficacy against DIGSA ([14]; 320 g/ha): 90%
O=S(=O)(CCCCl)Oc1ccccc1Oc1ncc(Br)cc1F [Example I-65]	90	90		100		90	90	90							90		90		
O=S(=O)(CCCC(F)(F)C(F)(F)F)Oc1c(Br)cccc1Oc1ncc(Cl)cn1 [Example I-67]	100	100	100	100	90	100	100		90	100	100	90	100	100	100	100	90	100	Post-emergence efficacy against ABUTH in % ([4]; 80 g/ha): 90%; Post-emergence efficacy against STEME ([7]; 320 g/ha): 100%; Post-emergence efficacy against POAAN [9]: 100%; Pre-emergence efficacy against VERPE in % [12]: 100%
O=S(=O)(CC1CC1(Cl)Cl)Oc1c(Br)cccc1Oc1ncc(Cl)cn1 (centres unmarked) [Example I-77]	100	100	100	100	90	100	90	100	90	90	100	100	100	100	100	100	100		Post-emergence efficacy against ABUTH in % ([4]; 80 g/ha): 90%; Post-emergence efficacy against ECHCG in % ([5]; 320 g/ha): 90%; Post-emergence efficacy against ECHCG in % ([5]; 1280 g/ha): 100%; Pre-emergence efficacy against STEME [6]: 90%; Pre-emergence efficacy against POAAN ([8]; dosage 320 g/ha): 100%; Pre-emergence efficacy against SETVI ([13]; dosage 320 g/ha): 90%; Pre-emergence efficacy against DIGSA ([14]; 320 g/ha): 90%
O=S(=O)(CC=C(Cl)Cl)Oc1c(Br)cccc1Oc1ncc(Cl)cn1 [Example I-84]	100	100	90	100		90	100			90	100	100	100	90	100	100		90	
